Consider 3 molecules from patent publication US20110257145A1, “METHOD OF TREATING NEUROLOGICAL DISEASES” (THE BOARD OF TRUSTEES OF THE UNIVERSITY OF ILLINOIS, priority 2008, published 2011).

One data set relates to primary cortical neurons. In words: neuron viability in the absence of HCA (MTT). The note with it: concentration not given. Type of data set: cell-based, rat. The method, then:
Primary neurons and cell culture: Cell cultures were obtained from the cerebral cortex of fetal Sprague-Dawley rats (embryonic day 17), as described previously. All experiments were initiated 24 hours after plating. Under these conditions, the cells are not susceptible to glutamate-mediated excitotoxicity.
Oxidative toxicity and neuron viability assays: For cytotoxicity studies, cells were rinsed with warm phosphate-buffered saline (PBS), then placed in minimum essential medium (Invitrogen, Carlsbad, Calif.) containing glucose (5.5 g L^−1), 10% fetal calf serum, L-glutamine (2 mM), and cysteine (100 μM). […] Viability was assessed after 48 hours by calceinacetoxymethyl ester (AM)/ethidium homodimer-1 staining (live/dead assay; Molecular Probes, Eugene, Oreg., USA) under fluorescence microscopy and the MTT assay method. […]
In one embodiment, the present invention relates to a method of treating an individual suffering from a disease or condition wherein activation of PKC and inhibition of HDAC provides a benefit comprising administering a therapeutically effective amount of a compound of structural formula (I) to an individual in need thereof. […] Neuron survival was quantified by MTT assay, a colorimetric assay in which the amount of yellow MTT is reduced to purple formazan by active mitochondrial reductase enzymes in viable cells.

For data set [1], the system named is AD cells. As to conditions: cited from earlier work.
Data set [2] concerns AD cells. As to conditions: cited from earlier work. The source holds these as a separate data set.
Data set [3] has as its system APP-[V717I] transgenic mice. The note with it: in vivo; cited from earlier work.
For another data set, the target named is mouse PKCα (Mus musculus, UniProt P20444). As to conditions: PKC binding, value marked [52]; read-out: K1[nm] ± SEM; cited from earlier work.
The test system of data set [4] is fibroblasts from AD patients. The note with it: sub-nanomolar concentrations; cited from earlier work.
For data set [5], the system named is AD double-transgenic mouse. As to conditions: in vivo; cited from earlier work.

Turning to `CC(/C=C/C(=O)NO)=C\[C@@H](C)C(=O)c1ccc(N(C)C)cc1` [TSA, trichostatin A], the “toxicity in neuron viability measurements” value in the data set with primary cortical neurons is given as “considerable dose dependent toxicity”.
For `CCCCCCCCC#Cc1ccc2c(c1)CC(CO)NC(=O)C(C(C)C)N2C` (centres unmarked) [BL, 8-(1-decynyl)benzolactam], the “K+ channel defects” value in the data set on AD cells [1] is reported as “reverses”. In the data set with AD cells [2], the “secretion of sAPPα” value was “enhances the secretion of sAPPα”. In data set [3], the “Aβ40 in the brains” value is reported as “decrease” and the “amount of sAPPα in the brains” value was “significantly increase”.
In the case of `CCC/C=C/C=C/C(=O)O[C@H]1/C(=C/C(=O)OC)C[C@H]2C[C@H]([C@@H](C)O)OC(=O)C[C@H](O)C[C@@H]3C[C@H](OC(C)=O)C(C)(C)[C@](O)(C[C@@H]4C/C(=C/C(=O)OC)C[C@H](/C=C/C(C)(C)[C@]1(O)O2)O4)O3` [Bryostatin 1], the Ki on mouse PKCα was 1.4 nM. Also, in data set [4], the “secretion of the α-secretase product sAPPα” value is listed as “dramatically enhances”. Further, in data set [5], the behavioral outcome is “improved”, the “brain Aβ40” value is given as “decreased”, the “brain Aβ42” value is “decreased” and the “rate of premature death” value was “ameliorated”.
